We go through 25 molecules from patent publication US20260007684A1, “AMIDE DERIVATIVES FOR INHIBITING NLRP3 AND USES THEREOF” (Ventus Therapeutics U.S., Inc., priority 2023, published 2026).

pIC50: −log10 of the molar value. Where only a bound is given, the exact number is not on record here.

Assay [1] deals with T1, human NLRP3 (Homo sapiens (Human), UniProt Q96P20). The assay is described as follows: Scintillation Proximity (SPA) NLRP3 Assay: displacement of 3H-MCC950. Type of assay: binding. The conditions noted are these: displacement of 3H-MCC950; read-out: SPA IC50. (In general: Scintillation proximity formats need no separation of bound from free tracer.)
T1 sequence (Q96P20 whole entry): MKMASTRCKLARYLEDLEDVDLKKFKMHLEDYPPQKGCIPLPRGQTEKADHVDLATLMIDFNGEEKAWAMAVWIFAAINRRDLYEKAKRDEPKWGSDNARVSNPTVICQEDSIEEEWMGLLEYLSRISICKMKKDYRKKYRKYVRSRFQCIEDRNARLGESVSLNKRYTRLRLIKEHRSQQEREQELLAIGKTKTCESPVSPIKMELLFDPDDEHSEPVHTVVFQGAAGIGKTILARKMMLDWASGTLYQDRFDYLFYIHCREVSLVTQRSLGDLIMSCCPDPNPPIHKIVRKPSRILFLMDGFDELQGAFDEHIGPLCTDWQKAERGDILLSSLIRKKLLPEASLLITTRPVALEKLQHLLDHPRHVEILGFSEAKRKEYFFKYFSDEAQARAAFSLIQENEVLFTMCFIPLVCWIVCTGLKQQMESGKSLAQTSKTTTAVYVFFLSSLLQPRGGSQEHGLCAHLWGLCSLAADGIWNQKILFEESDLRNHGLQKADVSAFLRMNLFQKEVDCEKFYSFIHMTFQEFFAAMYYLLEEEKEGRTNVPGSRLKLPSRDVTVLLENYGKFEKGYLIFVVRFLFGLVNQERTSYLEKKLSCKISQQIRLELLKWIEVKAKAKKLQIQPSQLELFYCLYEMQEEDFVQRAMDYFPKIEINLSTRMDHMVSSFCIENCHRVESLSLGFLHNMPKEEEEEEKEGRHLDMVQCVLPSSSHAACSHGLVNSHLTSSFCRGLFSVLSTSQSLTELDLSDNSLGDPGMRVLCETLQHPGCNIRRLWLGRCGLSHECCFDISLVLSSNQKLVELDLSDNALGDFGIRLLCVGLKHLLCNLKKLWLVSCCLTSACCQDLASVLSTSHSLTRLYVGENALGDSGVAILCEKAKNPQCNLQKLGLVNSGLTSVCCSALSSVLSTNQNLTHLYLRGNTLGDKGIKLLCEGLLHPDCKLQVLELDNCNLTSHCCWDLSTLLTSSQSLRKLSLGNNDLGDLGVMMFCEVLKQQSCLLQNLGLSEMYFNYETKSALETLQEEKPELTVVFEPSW
In assay [2] the target is T1, human NLRP3. In words: Human PBMC NLRP3 Assay (LPS priming, ATP stimulation, cytokine measurement). Type of assay: cell-based. To be noted: LPS priming, ATP stimulation.
In assay [3] the target is T1, human NLRP3. The assay is described as follows: Human Whole Blood (hWB) NLRP3 Assay (LPS/ATP, IL-1β). Type of assay: cell-based. The conditions noted are these: human whole blood, LPS/ATP, IL-1β; read-out: hWB IC50.
[4] abbreviates: human PBMC, read-out: PBMC IC50.

Regarding `C[C@@H]1CCN(c2nnn[nH]2)C[C@H](NC(=O)C2(c3ccc(OC(F)(F)F)c(F)c3O)CC2)C1` (single isomer, unassigned) [28A*, 1-(3-fluoro-2-hydroxy-4-(trifluoromethoxy)phenyl)-N-(5-methyl-1-(1H-tetrazol-5-yl)azepan-3-yl)cyclopropane-1-carboxamide], the pIC50 was above 6.00 in assay [1], 7.00 to 8.00 in assay [2] (setting [4]) and below 5.52 in assay [3].

As for `C[C@@H]1CCN(c2nnn[nH]2)C[C@H](NC(=O)C2(c3cc(F)c(Cl)cc3O)CC2)C1` (single isomer, unassigned) [29A*, 1-(4-chloro-5-fluoro-2-hydroxyphenyl)-N-(5-methyl-1-(1H-tetrazol-5-yl)azepan-3-yl)cyclopropane-1-carboxamide], the pIC50 was above 6.00 in assay [1], 7.00 to 8.00 in assay [2] (setting [4]) and 5.70 to 6.00 in assay [3].

With `C[C@@H]1CCN(c2nnn[nH]2)C[C@H](NC(=O)C2(c3ccc(C(F)(F)F)c(F)c3O)CC2)C1` (single isomer, unassigned) [31A*, 1-(3-fluoro-2-hydroxy-4-(trifluoromethyl)phenyl)-N-(5-methyl-1-(1H-tetrazol-5-yl)azepan-3-yl)cyclopropane-1-carboxamide], the results for the pIC50 in assay [1], in assay [2] (setting [4]) and in assay [3] were above 6.00, above 8.00 and 5.52 to 5.70, respectively.

As to `C[C@@H]1CCN(c2nnn[nH]2)C[C@H](NC(=O)C2(c3ccc(Cl)cc3F)CC2)C1` (single isomer, unassigned) [56A*], the pIC50 is above 6.00 in assay [1], above 8.00 in assay [2] (setting [4]) and 5.70 to 6.00 in assay [3].

`C[C@@H]1CCN(c2nnn[nH]2)C[C@H](NC(=O)C2(c3ccc(OC(F)(F)F)cc3)CC2)C1` (single isomer, unassigned) [57A*]: the pIC50 in assay [1] was above 6.00; in assay [2] (setting [4]), 7.00 to 8.00; in assay [3], 5.70 to 6.00.

`C[C@@H]1CCN(c2nnn[nH]2)C[C@H](NC(=O)C2(c3ccc(OC(F)F)cc3)CC2)C1` (single isomer, unassigned) [58A*]: the pIC50 is above 6.00 in assay [1], 7.00 to 8.00 in assay [2] (setting [4]) and above 6.00 in assay [3].

Consider `C[C@@H]1CCN(c2nnn[nH]2)C[C@H](NC(=O)C2(c3ccc(Br)cc3)CC2)C1` (single isomer, unassigned) [59A*], for which the pIC50 in assay [1] is above 6.00; in assay [2] (setting [4]) it was above 8.00; in assay [3], above 6.00.

Turning to `C[C@@H]1CCN(c2nnn[nH]2)C[C@H](NC(=O)C2(c3ccc(Cl)cc3O)CC2)C1` (single isomer, unassigned) [60A*], the pIC50 in assay [1] is above 6.00; in assay [2] (setting [4]) it was above 8.00; in assay [3] it was above 6.00.

`C[C@@H]1CCN(c2nnn[nH]2)C[C@@H](NC(=O)C2(c3ccc(Cl)cc3O)CC2)C1` (single isomer, unassigned) [60B*]: the pIC50 in assay [1] is above 6.00; in assay [2] (setting [4]) it was 7.00 to 8.00; in assay [3] it was above 6.00.

Regarding `C[C@@H]1CCN(c2nnn[nH]2)C[C@H](NC(=O)C2(c3ccc(C(F)(F)F)cc3)CC2)C1` (single isomer, unassigned) [61A*], the values for the pIC50 in assay [1], in assay [2] (setting [4]) and in assay [3] were above 6.00, 7.00 to 8.00 and above 6.00, respectively.

With `C[C@@H]1CCN(c2nnn[nH]2)C[C@H](NC(=O)C2(c3ccc(OC(F)(F)F)cc3O)CC2)C1` (single isomer, unassigned) [62A*], the pIC50 is above 6.00 in assay [1], above 8.00 in assay [2] (setting [4]) and above 6.00 in assay [3].

As for `C[C@@H]1CCN(c2nnn[nH]2)C[C@@H](NC(=O)C2(c3ccc(OC(F)(F)F)cc3O)CC2)C1` (single isomer, unassigned) [62B*], the pIC50 was above 6.00 in assay [1], 7.00 to 8.00 in assay [2] (setting [4]) and 5.70 to 6.00 in assay [3].

Consider `C[C@@H]1CCN(c2nnn[nH]2)C[C@H](NC(=O)C2(c3ccc(C(F)(F)F)cc3O)CC2)C1` (single isomer, unassigned) [63A*], for which the pIC50 in assay [1] is above 6.00; in assay [2] (setting [4]), above 8.00; in assay [3], above 6.00.

`C[C@@H]1CCN(c2nnn[nH]2)C[C@@H](NC(=O)C2(c3ccc(C(F)(F)F)cc3O)CC2)C1` (single isomer, unassigned) [63B*]: the values for the negative-log IC50 (pIC50) in assay [1], in assay [2] (setting [4]) and in assay [3] were above 6.00, 7.00 to 8.00 and above 6.00, respectively.

Consider `C[C@@H]1CCN(c2nnn[nH]2)C[C@H](NC(=O)C2(c3ccc(OC(F)(F)F)cc3F)CC2)C1` (single isomer, unassigned) [64A*], for which the pIC50 is above 6.00 in assay [1], 7.00 to 8.00 in assay [2] (setting [4]) and above 6.00 in assay [3].

Take `C[C@@H]1CCN(c2nnn[nH]2)C[C@H](NC(=O)C2(c3ccc(C(F)(F)F)c(F)c3)CC2)C1` (single isomer, unassigned) [66A*]: the pIC50 in assay [1] was above 6.00; in assay [2] (setting [4]), above 8.00; in assay [3], above 6.00.

For the molecule `Cc1ccc(C2(C(=O)N[C@@H]3C[C@H](C)CCN(c4nnn[nH]4)C3)CC2)c(O)c1` (single isomer, unassigned) [67A*], the pIC50 in assay [1] was above 6.00; in assay [2] (setting [4]) it was above 8.00; in assay [3] it was above 6.00.

In the case of `C[C@@H]1CCN(c2nnn[nH]2)C[C@H](NC(=O)C2(c3c(F)cc(Cl)cc3F)CC2)C1` (single isomer, unassigned) [72A*], the pIC50 was above 6.00 in assay [1], above 8.00 in assay [2] (setting [4]) and below 5.52 in assay [3].

For the molecule `Cc1ccc(C2(C(=O)N[C@@H]3C[C@H](C)CCN(c4nnn[nH]4)C3)CC2)c(O)c1F` (single isomer, unassigned) [74A*], the pIC50 is above 6.00 in assay [1], above 8.00 in assay [2] (setting [4]) and above 6.00 in assay [3].

As for `C[C@H]1CC[C@@H](NC(=O)C2(c3ccc(Cl)cc3O)CC2)CN(c2nnn[nH]2)C1` (single isomer, unassigned) [90A*], the values for the pIC50 in assay [1], in assay [2] (setting [4]) and in assay [3] were above 6.00, above 8.00 and below 5.52, respectively.

For `C[C@H]1C[C@@H](NC(=O)C2(c3ccc(C4CC4(F)F)cc3O)CC2)CN(c2nnn[nH]2)C1` (single isomer, unassigned) [94A*], the pIC50 is above 6.00 in assay [1], 7.00 to 8.00 in assay [2] (setting [4]) and below 5.52 in assay [3].

`C[C@H]1C[C@@H](NC(=O)C2(c3c(O)cc(C4CC4)cc3OC(F)(F)F)CC2)CN(c2nnn[nH]2)C1` (single isomer, unassigned) [95A*]: the values for the pIC50 in assay [1], in assay [2] (setting [4]) and in assay [3] were above 6.00, 7.00 to 8.00 and below 5.52, respectively.

`C[C@@H]1CCN(c2nnn[nH]2)C[C@H](NC(=O)C2(c3cnc(Cl)cc3O)CC2)C1` (single isomer, unassigned) [99A*]: the pIC50 in assay [1] was above 6.00; in assay [2] (setting [4]), 7.00 to 8.00; in assay [3], 5.52 to 5.70.

For `C[C@@H]1CCN(c2nnn[nH]2)C[C@H](NC(=O)C2(c3ccc(Cl)nc3O)CC2)C1` (single isomer, unassigned) [100A*], the pIC50 in assay [1] was above 6.00; in assay [2] (setting [4]), 6.30 to 7.00; in assay [3], below 5.52.

Consider `O=C(N[C@@H]1CC[C@H]2CC[C@@H]1N2c1nnn[nH]1)C1(c2ccc(Cl)cc2O)CC1` [75C*, N-((1S,2R,5S)-8-(1H-tetrazol-5-yl)-8-azabicyclo[3.2.1]octan-2-yl)-1-(4-chloro-2-hydroxyphenyl)cyclopropane-1-carboxamide], for which the pIC50 was above 6.00 in assay [1]; 7.00 to 8.00 in assay [2] (PBMC IC50, human PBMC); 5.70 to 6.00 in assay [3].

Usually pIC50 stands for the IC50 on a negative log10 scale, so that one unit is a factor of ten.
